“Also recorded” adds a separate entry of the source. Read-outs that look alike come from different tables or passages of the source.
Columns and labels:
[1] = Analgesic activity according to […] et al. (phenyl benzoquinone injection); format: in vivo; conditions: oral, 30 minutes before the injection of phenyl benzoquinone
Description: The compounds are administered orally 30 minutes before the injection of phenyl benzoquinone.

Solubility = format: physicochemical; conditions: solvents named in the value
in vivo = conditions: mouse
Description: The toxicity study was carried out on the conventional mouse, weighing about 20 g.
The substances were administered orally and intraperitoneally.
The LD50 was calculated in accordance with the method of L. C. MILLER and M. L. TAINTER, Proc. Soc. exper.

[2] = Ulcerogenic effect (criteria of PFEIFER and LEWALDOWFKI); format: in vivo; conditions: criteria of C. J. PFEIFER and L. G. LEWALDOWFKI
Description: J. PFEIFER and L. G. LEWALDOWFKI (Arch. Int. Pharmacodyn. 1971, 190, 5-13).

dental pulp = test: Electric stimulation of dental pulp in rabbits (J. CHEYMOL et al.); format: in vivo
[3] = ip, intraperitoneal, read-out: LD50 intraperitoneally

SMILES	ED50 [1] [mg/kg]	solubility (Solubility)	LD50 (in vivo; oral, read-out: LD50 orally) [mg/kg]	ulcerogenic effect [2]	analgesic activity in electric stimulation of dental pulp (dental pulp)	LD50 (in vivo; [3]) [mg/kg]
CC(=O)Oc1ccccc1C(=O)O [Acetylsalicylic acid, reference compound]	100					
CN(C)c1ccc(-c2n[nH]c(=O)nc2-c2ccc(N(C)C)cc2)cc1		Soluble in aqueous dilute bases and acids; also recorded: poorly soluble in alcohol, benzene, methylene chloride, chloroform; also recorded: Insoluble in ether				
CN(C)CCCn1nc(-c2ccc(N(C)C)cc2)c(-c2ccc(N(C)C)cc2)nc1=O [ST 778]	1 to 50	Soluble in dilute aqueous acids, alcohol, benzene, methylene chloride, and chloroform; also recorded: Insoluble in water, dilute bases and ether	> 1000			
CN(C)c1ccc(-c2nc(=O)n(C)nc2-c2ccc(N(C)C)cc2)cc1 [ST 729, 2-methyl 3-oxo 5,6-di(paradimethylamino-phenyl) as triazine]	1	insoluble in water, dilute bases, benzene, and ether; also recorded: Soluble in dilute acids, alcohol and methylene chloride		without ulcerogenic effect	confirmed	
CN(C)c1ccc(-c2nc(=O)n(CCN3CCOCC3)nc2-c2ccc(N(C)C)cc2)cc1 [ST 767, 2 Ethyl morpholino 3-oxo 5,6 di(paradimethylaminophenyl) as. triazine]	1 to 50	Soluble in dilute aqueous acids, alcohol, methylene chloride, and chloroform; also recorded: Insoluble in water and dilute bases, benzene and ether	> 1000			
CN(C)c1ccc(-c2nc(=S)n(C)nc2-c2ccc(N(C)C)cc2)cc1 [ST 811, 2-methyl 3-thione 5,6-di(paradimethylaminophenyl)as triazine]	1 to 50	Soluble in aqueous dilute acids, alcohols, and methylene chloride; also recorded: Insoluble in water, aqueous bases, and ether	> 1000			
CCN(CC)c1ccc(-c2nnc(O)nc2-c2ccc(N(CC)CC)cc2)cc1 [ST 770, 3-oxo 5,6-di(paradiethylaminophenyl) as triazine]		Soluble in dilute acids and bases, alcohol, benzene, and methylene chloride				
CN(C)c1ccc(-c2nn(C)c(=O)nc2-c2ccccc2Cl)cc1 [ST 746, 2-methyl 3-oxo 5(orthochlorophenyl) 6(paradimethylaminophenyl) as. triazine]	100	Insoluble in water, dilute bases and ether; also recorded: Soluble in methylene chloride, benzene, alcohol, chloroform and dilute acids	1000			300
CN(C)c1ccc(-c2nn(C)c(=O)nc2-c2ccc(Cl)cc2)cc1 [ST 761, 2-methyl 3-oxo 5(parachlorophenyl) 6(p-dimethylaminophenyl) as triazine]	4	Soluble in dilute acids, CH2 Cl2, and chloroform; also recorded: Insoluble in water, dilute bases, and ether	1500			400
CCN(CC)c1ccc(-c2nc(=O)n(C)nc2-c2ccc(N(CC)CC)cc2)cc1 [ST 771, 2-methyl 3-oxo 5,6-di(paradiethylaminophenyl) as triazine]		Soluble in dilute aqueous acids, alcohol, methylene chloride, and chloroform; also recorded: Insoluble in water, dilute bases, benzene, ether	> 1000			
C=CCn1nc(-c2ccc(N(C)C)cc2)c(-c2ccc(N(C)C)cc2)nc1=O [ST 776, 2-allyl 3-oxo 5,6-di(paradimethylaminophenyl) as triazine]	1 to 50	Soluble in dilute aqueous acids, alcohol, benzene, methylene chloride, and chloroform; also recorded: Insoluble in water, bases, and ether	> 1000	without ulcerogenic effect	confirmed	
O=C(OCC(O)CO)c1ccccc1Nc1ccnc2cc(Cl)ccc12 (stereo not drawn) [Glaphenine, reference compound]	36					
CN(C)c1ccc(-c2n[nH]c(=O)nc2-c2ccccc2Cl)cc1 [ST 745]		Insoluble in water, benzene, and ether; also recorded: Soluble in dilute bases and acids, ethanol, and methylene chloride				
CCN(CC)CCn1nc(-c2ccc(N(C)C)cc2)c(-c2ccc(N(C)C)cc2)nc1=O [ST 790, 2-diethylaminoethyl 3-oxo 5,6(paradimethylaminophenyl) as triazine]	1 to 50	Soluble in dilute aqueous acids, alcohol, benzene, methylene chloride, and chloroform; also recorded: Insoluble in bases, water, and ether	> 1000			

— patent US4188387A, “Amino-aryl 1,24-triazines useful in the treatment of diverse pain” (priority 1977, dated 1980)
